Consider three compounds from patent US8022248B2, “Substituted acids for the treatment of respiratory diseases” (AstraZeneca AB, priority 2004, dated 2011).

pIC50: −log10 of the molar value.

The target in the test is T1, rhCRTh2 (Homo sapiens, UniProt Q9Y5Y4).
T1 construct: expressed in transfected cells; host or cells: HEK cells (membrane preparation)
T1 sequence (Q9Y5Y4 1-395): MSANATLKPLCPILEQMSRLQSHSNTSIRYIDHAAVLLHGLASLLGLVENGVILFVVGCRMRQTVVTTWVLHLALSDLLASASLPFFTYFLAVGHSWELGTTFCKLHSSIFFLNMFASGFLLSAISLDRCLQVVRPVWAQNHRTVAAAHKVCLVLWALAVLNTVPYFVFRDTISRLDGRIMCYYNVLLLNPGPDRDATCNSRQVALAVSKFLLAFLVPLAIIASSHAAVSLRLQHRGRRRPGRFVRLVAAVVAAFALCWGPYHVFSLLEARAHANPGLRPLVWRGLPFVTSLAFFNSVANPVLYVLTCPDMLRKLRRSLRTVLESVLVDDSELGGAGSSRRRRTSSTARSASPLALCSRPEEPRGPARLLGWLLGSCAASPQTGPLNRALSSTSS
In words: Ligand binding assay: [3H]PGD2 binding to HEK cell membranes containing CRTh2 (SPA beads). The note with it: [3H]PGD2 displacement, HEK cell membranes expressing rhCRTh2/Gα16, 2 hours room temperature. The method, then:
[^3H]PGD2 was purchased from Perkin Elmer Life Sciences with a specific activity of 100-210 Ci/mmol. All other chemicals were of analytical grade.
HEK cells expressing rhCRTh2/Gα16 were routinely maintained in DMEM containing 10% Foetal Bovine Serum (HyClone), 1 mg/ml geneticin, 2 mM L-glutamine and 1% non-essential amino acids. For the preparation of membranes, the adherent transfected HEK cells were grown to confluence in two layer tissue culture factories (Fisher, catalogue number TKT-170-070E). Maximal levels of receptor expression were induced by addition of […] sodium butyrate for the last 18 hours of culture. The adherent cells were washed once with phosphate buffered saline (PBS, 50 ml per cell factory) and detached by the addition of 50 ml per cell factory of ice-cold membrane homogenisation buffer [20 mM HEPES (pH 7.4), 0.1 mM dithiothreitol, 1 mM EDTA, 0.1 mM phenyl methyl sulphonyl fluoride and 100 μg/ml bacitracin]. […] The final pellet was re-suspended in 4 ml of membrane homogenisation buffer per cell factory used and the protein content determined. […]
All assays were performed in Corning clear bottomed, white 96-well NBS plates (Fisher). […] (The optimum coating concentrations were determined for each batch of membranes) The beads were pelleted by centrifugation (800×g for 7 minutes at 4° C.), washed once with assay buffer (50 mM HEPES pH 7.4 containing 5 mM magnesium chloride) and finally re-suspended in assay buffer at a bead concentration of 10 mg/ml.
Each assay contained 20 μl of 6.25 nM [^3H]PGD2, 20 μl membrane saturated SPA beads both in assay buffer and 10 μl of compound solution or 13,14-dihydro-15-keto prostaglandin D2 (DK-PGD2, for determination of non-specific binding, Cayman chemical company). […] The assay plate was incubated at room temperature for 2 hours and counted on a Wallac Microbeta liquid scintillation counter (1 minute per well).
`CCS(=O)(=O)c1ccc(Sc2cc(Cl)ccc2SCC(=O)O)c(Cl)c1` [Example 5, [(4-Chloro-2-{[2-chloro-4-(ethylsulfonyl)phenyl]thio}phenyl)thio]acetic acid] gave a pIC50 of 8.60.
The compound `CCS(=O)(=O)c1ccc(Oc2cc(Cl)ccc2SCC(=O)O)c(Cl)c1` [Example 7, ({4-Chloro-2-[2-chloro-4-(ethylsulfonyl)phenoxy]phenyl}thio)acetic acid] showed a pIC50 of 9.10.
With `CCS(=O)(=O)Nc1ccc(Oc2cc(Cl)ccc2NCC(=O)O)c(Cl)c1` [Example 37, N-(4-Chloro-2-{2-chloro-4-[(ethylsulfonyl)amino]phenoxy}phenyl)glycine] the figure was 8.60.

Usually pIC50 stands for −log10 of the IC50, conventionally taken in molar units. High values mean a small IC50, low ones a large IC50.
